# Tests used:
# Assay type in all cases: in vivo
# [1] = test system: Abutilon theophrasti (ABUTH); assay: A. Herbicidal pre-emergence efficacy, ABUTH; details: scored visually after about 3 weeks vs untreated controls
# Summary of the method: (§1)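 Pre-emergence soil-surface spray in sandy loam pots, WP/EC in water plus 0.5% additive, 600 L/ha. Visual % damage rating after about 3 weeks in greenhouse vs. untreated; 0% = control-like, 100% = dead plants. Rates up to 1280 g/ha.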
# [2] = test system: Veronica persica (VERPE); assay: A. Herbicidal pre-emergence efficacy, VERPE; details: for Pre-emergence efficacy against VERPE: dosage 80 g/ha
# Summary of the method: as §1
# [3] = test system: Kochia scoparia (KCHSC); assay: B. Herbicidal post-emergence efficacy, KCHSC; details: for Post-emergence efficacy against KCHSC in %: rated visually after about 3 weeks; for Post-emergence efficacy against KCHSC: 1280 g/ha
# Summary of the method: (§2)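 Visual percent efficacy relative to untreated controls (0% unaffected, 100% dead), scored roughly 3 weeks after foliar spraying of one-leaf-stage pot-grown plants with WP or EC preparations at application rates up to 1280 g/ha in 600 L/ha water containing 0.5% additive.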
# [4] = test system: Alopecurus myosuroides (ALOMY); assay: A. Herbicidal pre-emergence efficacy, ALOMY; details: 1280 g/ha; scored visually after about 3 weeks vs untreated controls
# Description: Seeds of mono- and dicotyledonous weed plants were placed in plastic pots in sandy loam soil (doubly sown with one species each of mono- or dicotyledonous weed plants per pot) and covered with soil. The compounds of the invention, formulated in the form of wettable powders (WP) or as emulsion concentrates (EC), were then applied onto the surface of the covering soil as aqueous suspension or emulsion with addition of 0.5% additive at a water application rate of 600 liters per hectare (converted). After the treatment, the pots were placed in a greenhouse and kept under good growth conditions for the test plants. After about 3 weeks, the efficacy of the preparations was scored visually in comparison with untreated controls as percentages.
# For example, • 100% efficacy=plants have died, • 0% efficacy=like untreated control plants.
# Tables A1a to A12c below show the effects of selected compounds of the general formula (I) according to table 1 on various harmful plants at an application rate corresponding to 1280 g/ha or less, which were obtained by the experimental procedure mentioned above.
# [5] = test system: Echinochloa crus-galli (ECHCG); assay: B. Herbicidal post-emergence efficacy, ECHCG; details: rated visually after about 3 weeks
# Summary of the method: as §2
# [6] = test system: Echinochloa crus-galli (ECHCG); assay: C. Herbicidal pre-emergence efficacy, ECHCG; details: scored after about 3 weeks
# Summary of the method: (§3)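 Pre-emergence test: formulated compounds sprayed as aqueous suspension or emulsion with 0.5% additive at 600 l/ha onto soil covering sown seeds, at rates corresponding to 320 g/ha or less. After about 3 weeks in greenhouse, efficacy scored visually as percent versus untreated controls (100% = plants dead).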
# [7] = test system: Amaranthus retroflexus (AMARE); assay: C. Herbicidal pre-emergence efficacy, AMARE; details: scored after about 3 weeks
# Summary of the method: as §3
# [8] = test system: Pharbitis purpurea (PHBPU); assay: E. Herbicidal post-emergence efficacy, PHBPU
# Summary of the method: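 Greenhouse post-emergence spray, one-leaf stage (2–3 wk after sowing, sandy loam); WP/EC formulation, aqueous + 0.5% additive, 600 l/ha water; rates 320 g/ha or less. Visual rating ~3 wk later vs untreated; 0% = control-like, 100% = dead.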
structure (smiles),measurement,setting,value
Cc1cccc(Oc2ncc(Cl)cn2)c1OS(=O)(=O)CCC(F)(F)F [Example I-29],Pre-emergence efficacy against ABUTH,[1]; 80 g/ha,90%
same,Pre-emergence efficacy against ABUTH,[1]; 320 g/ha,100%
same,Pre-emergence efficacy against ABUTH,[1]; 1280 g/ha,100%
same,Pre-emergence efficacy against VERPE in %,[2]; 320 g/ha,100%
same,Pre-emergence efficacy against VERPE in %,[2]; 1280 g/ha,100%
same,Pre-emergence efficacy against VERPE,[2],100%
same,Post-emergence efficacy against KCHSC in %,[3]; 320 g/ha,100%
same,Post-emergence efficacy against KCHSC,[3],100%
same,Pre-emergence efficacy against ALOMY,[4],90%
same,Post-emergence efficacy against ECHCG in %,[5]; 320 g/ha,90%
same,Post-emergence efficacy against ECHCG in %,[5]; 1280 g/ha,100%
O=S(=O)(CCCC(F)(F)F)Oc1c(Br)cccc1Oc1ncc(Cl)cn1 [Example I-30],Pre-emergence efficacy against ABUTH,[1]; 320 g/ha,90%
same,Pre-emergence efficacy against ABUTH,[1]; 1280 g/ha,100%
same,Pre-emergence efficacy against VERPE in %,[2]; 320 g/ha,100%
same,Pre-emergence efficacy against VERPE in %,[2]; 1280 g/ha,100%
same,Post-emergence efficacy against KCHSC in %,[3]; 80 g/ha,100%
same,Post-emergence efficacy against KCHSC in %,[3]; 320 g/ha,100%
same,Post-emergence efficacy against KCHSC,[3],100%
same,Post-emergence efficacy against ECHCG in %,[5]; 320 g/ha,90%
same,Post-emergence efficacy against ECHCG in %,[5]; 1280 g/ha,90%
O=S(=O)(CCC1CC1)Oc1c(F)cccc1Oc1ncc(Cl)cn1 [Example I-55],Pre-emergence efficacy against ABUTH,[1]; 1280 g/ha,100%
same,Pre-emergence efficacy against VERPE in %,[2]; 320 g/ha,100%
same,Pre-emergence efficacy against VERPE in %,[2]; 1280 g/ha,100%
same,Pre-emergence efficacy against ECHCG,[6]; 80 g/ha,90%
same,Pre-emergence efficacy against ECHCG,[6]; 320 g/ha,100%
same,Post-emergence efficacy against KCHSC in %,[3]; 320 g/ha,90%
same,Post-emergence efficacy against KCHSC,[3],90%
same,Pre-emergence efficacy against AMARE,[7]; 80 g/ha,100%
same,Pre-emergence efficacy against AMARE,[7]; 320 g/ha,100%
same,Post-emergence efficacy against ECHCG in %,[5]; 320 g/ha,90%
same,Post-emergence efficacy against ECHCG in %,[5]; 1280 g/ha,90%
same,Post-emergence efficacy against PHBPU in %,[8]; application rate 80 g/ha,90%
same,Post-emergence efficacy against PHBPU in %,[8]; application rate 320 g/ha,100%
C=CCS(=O)(=O)Oc1ccccc1Oc1ncc(Cl)cn1 [Example I-36],Pre-emergence efficacy against ABUTH,[1]; 320 g/ha,100%
same,Pre-emergence efficacy against ABUTH,[1]; 1280 g/ha,100%
same,Pre-emergence efficacy against VERPE in %,[2]; 1280 g/ha,100%
same,Pre-emergence efficacy against ECHCG,[6]; 320 g/ha,80%
same,Post-emergence efficacy against KCHSC,[3],90%
same,Pre-emergence efficacy against AMARE,[7]; 320 g/ha,100%
O=S(=O)(CCCCCl)Oc1ccccc1Oc1ncc(Cl)cn1 [Example I-15],Pre-emergence efficacy against ABUTH,[1]; 80 g/ha,100%
same,Pre-emergence efficacy against ABUTH,[1]; 320 g/ha,100%
same,Pre-emergence efficacy against ABUTH,[1]; 1280 g/ha,100%
same,Pre-emergence efficacy against VERPE in %,[2]; 320 g/ha,90%
same,Pre-emergence efficacy against VERPE in %,[2]; 1280 g/ha,90%
same,Pre-emergence efficacy against ECHCG,[6]; 320 g/ha,90%
same,Post-emergence efficacy against KCHSC in %,[3]; 80 g/ha,100%
same,Post-emergence efficacy against KCHSC in %,[3]; 320 g/ha,100%
same,Post-emergence efficacy against KCHSC,[3],100%
same,Pre-emergence efficacy against AMARE,[7]; 80 g/ha,90%
same,Pre-emergence efficacy against AMARE,[7]; 320 g/ha,100%
same,Post-emergence efficacy against ECHCG in %,[5]; 80 g/ha,90%
same,Post-emergence efficacy against ECHCG in %,[5]; 320 g/ha,100%
same,Post-emergence efficacy against ECHCG in %,[5]; 1280 g/ha,100%
same,Post-emergence efficacy against PHBPU in %,[8]; application rate 80 g/ha,90%
same,Post-emergence efficacy against PHBPU in %,[8]; application rate 320 g/ha,100%
Cc1cccc(OS(=O)(=O)CCCCl)c1Oc1ncc(Cl)cn1 [Example I-12],Pre-emergence efficacy against ABUTH,[1]; 80 g/ha,90%
same,Pre-emergence efficacy against ABUTH,[1]; 320 g/ha,90%
same,Pre-emergence efficacy against ABUTH,[1]; 1280 g/ha,100%
same,Pre-emergence efficacy against VERPE in %,[2]; 320 g/ha,90%
same,Pre-emergence efficacy against VERPE in %,[2]; 1280 g/ha,100%
same,Pre-emergence efficacy against ECHCG,[6]; 80 g/ha,90%
same,Pre-emergence efficacy against ECHCG,[6]; 320 g/ha,90%
same,Post-emergence efficacy against KCHSC,[3],90%
same,Pre-emergence efficacy against AMARE,[7]; 80 g/ha,100%
same,Pre-emergence efficacy against AMARE,[7]; 320 g/ha,100%
same,Post-emergence efficacy against PHBPU in %,[8]; application rate 80 g/ha,90%
same,Post-emergence efficacy against PHBPU in %,[8]; application rate 320 g/ha,90%
"Cc1cccc(Oc2ncc(Cl)cn2)c1OS(=O)(=O)CCCC(F)(F)F [Example I-28, 2-[(5-Chloropyrimidin-2-yl)oxy]-6-methylphenyl 4,4,4-trifluorobutane-1-sulfonate]",Pre-emergence efficacy against ABUTH,[1]; 80 g/ha,100%
same,Pre-emergence efficacy against ABUTH,[1]; 320 g/ha,100%
same,Pre-emergence efficacy against ABUTH,[1]; 1280 g/ha,100%
same,Pre-emergence efficacy against VERPE in %,[2]; 320 g/ha,100%
same,Pre-emergence efficacy against VERPE in %,[2]; 1280 g/ha,100%
same,Post-emergence efficacy against KCHSC in %,[3]; 320 g/ha,90%
same,Post-emergence efficacy against KCHSC,[3],100%
same,Pre-emergence efficacy against ALOMY,[4],100%
same,Post-emergence efficacy against ECHCG in %,[5]; 320 g/ha,90%
same,Post-emergence efficacy against ECHCG in %,[5]; 1280 g/ha,100%
C=CCCS(=O)(=O)Oc1c(F)cccc1Oc1ncc(Cl)cn1 [Example I-50],Pre-emergence efficacy against ABUTH,[1]; 80 g/ha,90%
same,Pre-emergence efficacy against ABUTH,[1]; 320 g/ha,100%
same,Pre-emergence efficacy against ABUTH,[1]; 1280 g/ha,100%
same,Pre-emergence efficacy against VERPE in %,[2]; 320 g/ha,100%
same,Pre-emergence efficacy against VERPE in %,[2]; 1280 g/ha,100%
same,Pre-emergence efficacy against VERPE,[2],90%
same,Pre-emergence efficacy against ECHCG,[6]; 80 g/ha,80%
same,Pre-emergence efficacy against ECHCG,[6]; 320 g/ha,100%
same,Post-emergence efficacy against KCHSC,[3],90%
same,Pre-emergence efficacy against AMARE,[7]; 80 g/ha,100%
same,Pre-emergence efficacy against AMARE,[7]; 320 g/ha,100%
same,Post-emergence efficacy against ECHCG in %,[5]; 1280 g/ha,90%
same,Post-emergence efficacy against PHBPU in %,[8]; application rate 80 g/ha,90%
same,Post-emergence efficacy against PHBPU in %,[8]; application rate 320 g/ha,90%
CC(C)CCS(=O)(=O)Oc1ccccc1Oc1ncc(Cl)cn1 [Example I-25],Pre-emergence efficacy against ABUTH,[1]; 1280 g/ha,100%
same,Pre-emergence efficacy against VERPE in %,[2]; 1280 g/ha,90%
same,Pre-emergence efficacy against ECHCG,[6]; 80 g/ha,100%
same,Pre-emergence efficacy against ECHCG,[6]; 320 g/ha,100%
same,Post-emergence efficacy against KCHSC in %,[3]; 80 g/ha,90%
same,Post-emergence efficacy against KCHSC in %,[3]; 320 g/ha,100%
same,Post-emergence efficacy against KCHSC,[3],100%
same,Pre-emergence efficacy against AMARE,[7]; 80 g/ha,100%
same,Pre-emergence efficacy against AMARE,[7]; 320 g/ha,100%
same,Post-emergence efficacy against ECHCG in %,[5]; 320 g/ha,90%
same,Post-emergence efficacy against ECHCG in %,[5]; 1280 g/ha,100%
same,Post-emergence efficacy against PHBPU in %,[8]; application rate 80 g/ha,80%
same,Post-emergence efficacy against PHBPU in %,[8]; application rate 320 g/ha,90%
